Earlier results, collected in patent US10675364B2, “Rhodol fluorophores for near-infrared imaging” (The Board of Trustees of the Leland Stanford Junior …, priority 2015, dated 2020).

Conditions: highly sensitive to pH in the physiological range

- pKa: 6.3
Compound: O=C1OC2(c3ccc(O)cc3Oc3cc(O)ccc32)c2ccccc21 [fluorescein]
